Experiments:
[1] = test system: Becker (Low Grade Glioma); experiment: Bliss excess, mean over the matrix (fraction); higher = more synergy
In short: (§1)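 Bliss excess equals the observed combination effect minus the expected value EA + EB − EA·EB, where EA and EB are the effects of each agent alone. Combination Emax is the second-highest inhibition within the matrix. Inhibition was scaled from CellTiter-Glo 2.0 luminescence, with 0 set by vehicle wells and 1 by blank wells, after 72 hours of two-drug dosing of cells plated in 1536-well plates.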

CHL-1 (Melanoma) [2] = experiment: as above
In short: as §1

[3] = test system: CML-T1 (Chronic Myelogenous Leukemia); experiment: as above
In short: as §1

[4] = test system: COLO-684 (Endometrial Carcinoma); experiment: as above
In short: as §1

[5] = test system: EB-3 (Burkitt's Lymphoma); experiment: as above
In short: as §1

[6] = test system: FLO-1 (Esophageal Adenocarcinoma); experiment: as above
In short: as §1

[7] = test system: HCC-44 (Lung Adenocarcinoma); experiment: as above
In short: as §1

KYM-1 (Rhabdomyosarcoma) [8] = experiment: as above
In short: as §1

[9] = test system: KYSE-70 (Esophageal Squamous Cell Carcinoma); experiment: as above
In short: as §1

[10] = test system: LAMA-84 (Chronic Myelogenous Leukemia); experiment: as above
In short: as §1

[11] = test system: LOUCY (T-Lymphoblastic Leukemia); experiment: as above
In short: as §1

[12] = test system: NCI-H1755 (Lung Adenocarcinoma); experiment: as above
In short: as §1

[13] = test system: NCI-H810 (Non-Small Cell Lung Carcinoma); experiment: as above
In short: as §1

[14] = test system: NKM-1 (Acute Myeloid Leukemia); experiment: as above
In short: as §1

[15] = test system: OV-90 (Ovarian Carcinoma); experiment: as above
In short: as §1

[16] = test system: PANC-02-03 (Pancreatic Carcinoma); experiment: as above
In short: as §1

[17] = test system: PC-14 (Lung Adenocarcinoma); experiment: as above
In short: as §1

[18] = test system: RMG-I (Ovarian Carcinoma); experiment: as above
In short: as §1

[19] = test system: SK-MM-2 (Plasma Cell Myeloma); experiment: as above
In short: as §1

[20] = test system: SW684 (Other Solid Carcinomas); experiment: as above
In short: as §1

[21] = test system: Becker (Low Grade Glioma); experiment: combination Emax (second highest fraction inhibited in the dose matrix, 72 h); higher = more inhibition; extreme values may be limits of the assay
In short: as §1

CHL-1 (Melanoma) [22] = experiment: as above
In short: as §1

[23] = test system: CML-T1 (Chronic Myelogenous Leukemia); experiment: as above
In short: as §1

[24] = test system: COLO-684 (Endometrial Carcinoma); experiment: as above
In short: as §1

[25] = test system: EB-3 (Burkitt's Lymphoma); experiment: as above
In short: as §1

[26] = test system: FLO-1 (Esophageal Adenocarcinoma); experiment: as above
In short: as §1

[27] = test system: HCC-44 (Lung Adenocarcinoma); experiment: as above
In short: as §1

KYM-1 (Rhabdomyosarcoma) [28] = experiment: as above
In short: as §1

[29] = test system: KYSE-70 (Esophageal Squamous Cell Carcinoma); experiment: as above
In short: as §1

[30] = test system: LAMA-84 (Chronic Myelogenous Leukemia); experiment: as above
In short: as §1

[31] = test system: LOUCY (T-Lymphoblastic Leukemia); experiment: as above
In short: as §1

[32] = test system: NCI-H1755 (Lung Adenocarcinoma); experiment: as above
In short: as §1

[33] = test system: NCI-H810 (Non-Small Cell Lung Carcinoma); experiment: as above
In short: as §1

[34] = test system: NKM-1 (Acute Myeloid Leukemia); experiment: as above
In short: as §1

[35] = test system: OV-90 (Ovarian Carcinoma); experiment: as above
In short: as §1

[36] = test system: PANC-02-03 (Pancreatic Carcinoma); experiment: as above
In short: as §1

[37] = test system: PC-14 (Lung Adenocarcinoma); experiment: as above
In short: as §1

[38] = test system: RMG-I (Ovarian Carcinoma); experiment: as above
In short: as §1

[39] = test system: SK-MM-2 (Plasma Cell Myeloma); experiment: as above
In short: as §1

[40] = test system: SW684 (Other Solid Carcinomas); experiment: as above
In short: as §1

N#Cc1cnc(Nc2cc(NC[C@H]3CNCCO3)c(C(F)(F)F)cn2)cn1 [SRA737] + O=c1[nH]cc(F)c(=O)[nH]1 [5-Fluorouracil] (first compound max 10 µM, 7x7, partner max 20 µM)
Bliss excess [1]: 0.0222
Bliss excess (CHL-1 (Melanoma) [2]): -0.0351
Bliss excess [3]: -0.0498
Bliss excess [4]: -0.0334
Bliss excess [5]: -0.0561
Bliss excess [6]: 0.0266
Bliss excess [7]: 0.125
Bliss excess (KYM-1 (Rhabdomyosarcoma) [8]): -0.0559
Bliss excess [9]: -0.0214
Bliss excess [10]: -0.057
Bliss excess [11]: -0.0122
Bliss excess [12]: 0.0078
Bliss excess [13]: -0.0924
Bliss excess [14]: -0.0812
Bliss excess [15]: -0.0306
Bliss excess [16]: 0.0463
Bliss excess [17]: -0.0109
Bliss excess [18]: -0.0735
Bliss excess [19]: -0.034
Bliss excess [20]: -0.0315
combination Emax [21]: 0.644
combination Emax (CHL-1 (Melanoma) [22]): 0.494
combination Emax [23]: 0.994
combination Emax [24]: 0.644
combination Emax [25]: 0.624
combination Emax [26]: 0.803
combination Emax [27]: 0.861
combination Emax (KYM-1 (Rhabdomyosarcoma) [28]): 0.927
combination Emax [29]: 0.196
combination Emax [30]: 0.913
combination Emax [31]: 0.911
combination Emax [32]: 0.679
combination Emax [33]: 0.427
combination Emax [34]: 0.919
combination Emax [35]: 0.247
combination Emax [36]: 0.407
combination Emax [37]: 0.696
combination Emax [38]: 0.106
combination Emax [39]: 0.473
combination Emax [40]: 0.273

C[C@@H]1COCCN1c1cc(C2([S@](C)(=N)=O)CC2)nc(-c2ccnc3[nH]ccc23)n1 [AZD6738] + C1CC(C1)(C(=O)[O-])C(=O)[O-].N.N.[Pt+2] [Carboplatin] (first compound max 10 µM, 7x7, partner max 10 µM)
Bliss excess [1]: -0.0224
Bliss excess (CHL-1 (Melanoma) [2]): -0.0178
Bliss excess [3]: -0.031
Bliss excess [4]: -0.0356
Bliss excess [5]: -0.0876
Bliss excess [6]: -0.0416
Bliss excess [7]: -0.0585
Bliss excess (KYM-1 (Rhabdomyosarcoma) [8]): 0.0183
Bliss excess [9]: -0.0571
Bliss excess [10]: -0.0368
Bliss excess [11]: 0.0054
Bliss excess [12]: -0.0571
Bliss excess [13]: -0.116
Bliss excess [14]: -0.0102
Bliss excess [15]: -0.0638
Bliss excess [16]: -0.0433
Bliss excess [17]: -0.0164
Bliss excess [18]: -0.0502
Bliss excess [19]: -0.0045
Bliss excess [20]: -0.0968
combination Emax [21]: 0.648
combination Emax (CHL-1 (Melanoma) [22]): 0.798
combination Emax [23]: 0.976
combination Emax [24]: 0.756
combination Emax [25]: 0.751
combination Emax [26]: 0.619
combination Emax [27]: 0.288
combination Emax (KYM-1 (Rhabdomyosarcoma) [28]): 0.904
combination Emax [29]: 0.266
combination Emax [30]: 0.92
combination Emax [31]: 0.972
combination Emax [32]: 0.807
combination Emax [33]: 0.458
combination Emax [35]: 0.345
combination Emax [36]: 0.433
combination Emax [37]: 0.807
combination Emax [38]: 0.337
combination Emax [39]: 0.319
combination Emax [40]: 0.342

C=CCn1c(=O)c2cnc(Nc3ccc(N4CCN(C)CC4)cc3)nc2n1-c1cccc(C(C)(C)O)n1 [AZD1775] + CCc1c2c(nc3ccc(O)cc13)-c1cc3c(c(=O)n1C2)COC(=O)[C@]3(O)CC [SN-38] (first compound max 1 µM, partner max 0.3 µM)
Bliss excess [1]: -0.0094
Bliss excess (CHL-1 (Melanoma) [2]): 0.0518
Bliss excess [3]: -0.002
Bliss excess [4]: -0.0122
Bliss excess [5]: -0.0467
Bliss excess [6]: 0.0261
Bliss excess [7]: 0.0458
Bliss excess (KYM-1 (Rhabdomyosarcoma) [8]): -0.0535
Bliss excess [9]: -0.0358
Bliss excess [10]: -0.0202
Bliss excess [11]: 0.0229
Bliss excess [12]: 0.0139
Bliss excess [13]: -0.0454
Bliss excess [14]: 0.0008
Bliss excess [15]: -0.101
Bliss excess [16]: 0.0042
Bliss excess [17]: -0.0001
Bliss excess [18]: -0.0848
Bliss excess [19]: 0.0271
Bliss excess [20]: 0.0144
combination Emax [21]: 0.903
combination Emax (CHL-1 (Melanoma) [22]): 0.833
combination Emax [23]: 1
combination Emax [24]: 0.906
combination Emax [25]: 0.884
combination Emax [26]: 0.897
combination Emax [27]: 0.935
combination Emax (KYM-1 (Rhabdomyosarcoma) [28]): 0.958
combination Emax [29]: 0.599
combination Emax [30]: 0.993
combination Emax [31]: 0.995
combination Emax [32]: 0.827
combination Emax [33]: 0.634
combination Emax [34]: 0.997
combination Emax [35]: 0.537
combination Emax [36]: 0.706
combination Emax [37]: 0.929
combination Emax [38]: 0.524
combination Emax [39]: 0.794
combination Emax [40]: 0.493

CN(CCO)CC[C@H](CSc1ccccc1)Nc1ccc(S(=O)(=O)NC(=O)c2ccc(N3CCC([C@@H](O)c4ccccc4-c4ccc(Cl)cc4)CC3)cc2)cc1S(=O)(=O)C(F)(F)F [AZD4320] + Nc1ccn([C@@H]2O[C@H](CO)[C@@H](O)C2(F)F)c(=O)n1 [Gemcitabine] (first compound max 1 µM, 7x7, partner max 0.3 µM)
Bliss excess [1]: 0.0818
Bliss excess (CHL-1 (Melanoma) [2]): 0.0768
Bliss excess [3]: -0.0189
Bliss excess [4]: -0.0157
Bliss excess [5]: 0.0031
Bliss excess [6]: 0.0443
Bliss excess [7]: 0.0237
Bliss excess (KYM-1 (Rhabdomyosarcoma) [8]): 0.001
Bliss excess [9]: -0.0342
Bliss excess [10]: 0.0346
Bliss excess [11]: 0.0431
Bliss excess [12]: -0.0211
Bliss excess [13]: -0.0458
Bliss excess [14]: 0.0029
Bliss excess [15]: 0.0718
Bliss excess [16]: -0.071
Bliss excess [17]: 0.0292
Bliss excess [18]: 0.0063
Bliss excess [19]: 0.0061
Bliss excess [20]: -0.0442
combination Emax [21]: 0.8
combination Emax (CHL-1 (Melanoma) [22]): 0.686
combination Emax [23]: 1
combination Emax [24]: 0.429
combination Emax [25]: 0.469
combination Emax [26]: 0.776
combination Emax [27]: 0.641
combination Emax (KYM-1 (Rhabdomyosarcoma) [28]): 1
combination Emax [29]: 0.159
combination Emax [30]: 0.979
combination Emax [31]: 1
combination Emax [32]: 0.463
combination Emax [33]: 0.593
combination Emax [34]: 1
combination Emax [35]: 0.88
combination Emax [36]: 0.482
combination Emax [37]: 0.699
combination Emax [38]: 0.866
combination Emax [39]: 1
combination Emax [40]: 0.524
